Data taken from patent US8404742B2, “Diosmetin compounds, a process for their preparation and pharmaceutical compositions containing them” (Les Laboratories Server, priority 2008, dated 2013).

Assays:
[1] = tested on: Leukocyte adhesion to the endothelial cells in the post-capillary venules; assay: In vivo inhibition of leukocyte adhesion (ischaemia/reperfusion, hamster cheek pouch); parameters: species or system hamsters; settings: 3 mg/kg oral single dose, n=3
Procedure: Three groups of 3 hamsters, weighing from 90 to 110 g, are used in this study. Thirty minutes before anaesthesia, the hamsters are treated orally with a single dose of placebo (gum arabic 10%), of compound of Example 1 (3 mg/kg) or of reference compound (3 mg/kg). The animals are anaesthetised with pentobarbital 50 mg/kg by intraperitoneal administration. The hamsters are placed under a microscope and the cheek pouch is isolated and immersed in a perfusion solution (NaCl 110.0 mM, KCl 4.7 mM, CaCl2 2.0 mM, MgSO4 1.2 mM, NaHCO3 18.0 mM, Hepes 15.39 mM and Hepes Na^+-salt 14.61 mM), (Duling, The preparation and use of the hamster cheek pouch for studies of the microcirculation, 1973, Microvasc. Res. 5: 423-429; Svensjö et al., The hamster cheek pouch preparation as a model for studies of macromolecular permeability of the microvasculature, 1978, Uppsala J. Med. Sci. 83: 71-79).
Local ischaemia is brought about with the aid of a latex tube fitted at the entrance to the cheek pouch. The intratubular pressure of the tube is increased to 200-220 mm Hg with the aid of a calibrated syringe. This total occlusion is carried out for 30 minutes and then reperfusion is performed for 45 minutes. Leukocyte adhesion to the endothelial cells in the post-capillary venules is quantified in a field of 6 mm^2 immediately after the […] (defined as 100%) and then at different times after reperfusion (0, 15, 30 and 45 minutes).

[2] = tested on: NADPH oxidase; assay: In vitro inhibition of the activity of NADPH oxidase in HUVEC (angiotensin II, lucigenin luminescence); type: cell-based, human; settings: 100 μM compound, angiotensin II 1 μM induction, control = 100%, n=3
Procedure: The study is carried out on human endothelial cells HUVEC (Human Umbilical Vein Endothelial Cells, Clonetics Co). The cells are cultured in an EBM2 medium (Endothelial Basal Medium, Clonetics Co) supplemented with 2% FCS (Fœtal Calf Serum) and EGM2 (Endothelial Growth Medium, Clonetics Co).
The cells are incubated in the presence of solvent (0.1% DMSO, compound of Example 1 control), EBM2 (compound of Example 2 control and compound of Example 3 control), compound of Example 1 (100 μM), compound of Example 2 (100 μM) or compound of Example 3 (100 μM) for 15 minutes and then activated using angiotensin II (1 μM) for 30 minutes in order to activate the NADPH oxidase. The cells are washed with EBM2, and then the NADPH oxidase substrate (NADPH, 200 μM) and lucigenin (25 μM) are added. The reduction in lucigenin by the superoxide anions produced by the NADPH oxidase is quantified using a luminometer. The number of counts per second (cps) of the control groups is compared to the treatment groups. The cps obtained with the control groups are considered as 100% NADPH oxidase activity.
The activity of the compounds of Examples 1, 2 and 3 is evaluated as a function of the number of cps obtained, that activity being greater the lower the number of cps.

[3] = tested on: washed platelets; assay: In vitro inhibition of platelet aggregation (collagen-induced, washed platelets, turbidimetry); settings: Oryctolagus cuniculus, read-out: percentage inhibition of platelet aggregation
Procedure: The platelet-rich plasma is obtained by centrifugation. The platelets are then washed by centrifugation.
The washed platelets are resuspended in a Tyrode buffer. […] After 2 minutes, aggregation is brought about using collagen (4 μg/ml); the response is then recorded for 6 minutes. Platelet aggregation is quantified by means of turbidimetry, that is to say the percentage light that is transmitted through the platelet suspension with respect to a cell containing Tyrode and a cell containing the solvent (0.1% DMSO).

C=C(C)Cc1c(-c2cc(=O)c3c(O)c(CC(=C)C)c(O)c(CC(=C)C)c3o2)ccc(OC)c1O [Example 1, 6,8,2′-Tris(isobut-2-en-1-yl)diosmetin]
number of leukocytes adhering to endothelial cells in post-capillary venules (number after ischaemia = 100%) ([1]; 0 minutes after reperfusion): 81.7 ± 19.1%
number of leukocytes adhering to endothelial cells in post-capillary venules (number after ischaemia = 100%) ([1]; 15 minutes after reperfusion): 100 ± 13.7%
number of leukocytes adhering to endothelial cells in post-capillary venules (number after ischaemia = 100%) ([1]; 30 minutes after reperfusion): 91.0 ± 18.7%
number of leukocytes adhering to endothelial cells in post-capillary venules (number after ischaemia = 100%) ([1]; 45 minutes after reperfusion): 109.3 ± 23.0%
NADPH oxidase activity (%/control group) [2]: 38.16 ± 3.13%
inhibition at 30 µM [3]: 36.6 ± 9.9%

C=C(C)Cc1c(-c2cc(=O)c3c(O)c(CC(=C)C)c(O[C@@H]4O[C@H](C(=O)O)[C@@H](O)[C@H](O)[C@H]4O)c(CC(=C)C)c3o2)ccc(OC)c1O [Example 2, (5-Hydroxy-2-[3-hydroxy-4-methoxy-2-(isobut-2-en-1-yl)phenyl]-6,8-bis(isobut-2-en-1-yl)-4-oxo-4H-chromen-7-yl)-beta-D-glucuronic acid]
NADPH oxidase activity (%/control group) [2]: 30.60 ± 4.83%

C=C(C)Cc1c(-c2cc(=O)c3c(O)c(CC(=C)C)c(O)c(CC(=C)C)c3o2)ccc(OC)c1O[C@@H]1O[C@H](C(=O)O)[C@@H](O)[C@H](O)[C@H]1O [Example 3, 3-[5,7-Dihydroxy-6,8-bis(isobut-2-en-1-yl)-4-oxo-4H-chromen-2-yl]-6-methoxy-2-(isobut-2-en-1-yl)phenyl-beta-D-glucuronic acid]
NADPH oxidase activity (%/control group) [2]: 18.45 ± 4.08%
